# Source: paper PMC12418948, “Intranasal Administration of KCNN2 Blocking Peptide Improves Deficits in Cognitive Flexibility in Mouse Model of Fetal Alcohol Spectrum Disorders” (International Journal of Neuropsychopharmacology, 2025)
# Entries after “also recorded” stand apart in the source; their conditions may differ. Positions of bridges follow the written chain, without caps; N, C: chain ends. Non-standard residues stand in square brackets, D forms with d. Residues, ends and D or L forms follow the SMILES beside them. Dab = NCC[C@H](N)C(=O)O
# Legend:
# rat = system: rat; design: method as in 2 sources, one per row (each row's own in cited_ref): ref 82 = [82]; PMID 15985330; doi:10.1016/j.neulet.2005.05.050; 82. Deschaux O , Bizot JC . Apamin produces selective improvements of learning in rats . Neurosci Lett. 2005; 386 : 5 – 8 . 10.1016/j.neulet.2005.05.050 15985330 ||| ref 26, 82, 83 = [26]; PMID 18561910; doi:10.1016/j.ejphar.2008.05.019; 26. Mpari B , Sreng L , Regaya I , Mourre C . Small-conductance Ca(2+)-activated K(+) channels: heterogeneous affinity in rat brain structures and cognitive modulation by specific blockers . Eur J Pha || [82]; PMID 15985330; doi:10.1016/j.neulet.2005.05.050; 82. Deschaux O , Bizot JC . Apamin produces selective improvements of learning in rats . Neurosci Lett. 2005; 386 : 5 – 8 . 10.1016/j.neulet.2005.05.050 15985330 || [83]; PMID 9148239; doi:10.1016/s0304-3940(97)13367-5; 83. Deschaux O , Bizot JC , Goyffon M . Apamin improves learning in an object recognition task in rats . Neurosci Lett. 1997; 222 : 159 – 162 . 10.1016/s0304-3940(97)13367-5 9148239; settings: cited from earlier work
# human KCNN2 = human KCNN2 (Homo sapiens, UniProt Q9H2S1); assay: Thallium flux assay, KCNN2 channel block; assay type: cell-based
# Chain of human KCNN2 (Q9H2S1 whole entry): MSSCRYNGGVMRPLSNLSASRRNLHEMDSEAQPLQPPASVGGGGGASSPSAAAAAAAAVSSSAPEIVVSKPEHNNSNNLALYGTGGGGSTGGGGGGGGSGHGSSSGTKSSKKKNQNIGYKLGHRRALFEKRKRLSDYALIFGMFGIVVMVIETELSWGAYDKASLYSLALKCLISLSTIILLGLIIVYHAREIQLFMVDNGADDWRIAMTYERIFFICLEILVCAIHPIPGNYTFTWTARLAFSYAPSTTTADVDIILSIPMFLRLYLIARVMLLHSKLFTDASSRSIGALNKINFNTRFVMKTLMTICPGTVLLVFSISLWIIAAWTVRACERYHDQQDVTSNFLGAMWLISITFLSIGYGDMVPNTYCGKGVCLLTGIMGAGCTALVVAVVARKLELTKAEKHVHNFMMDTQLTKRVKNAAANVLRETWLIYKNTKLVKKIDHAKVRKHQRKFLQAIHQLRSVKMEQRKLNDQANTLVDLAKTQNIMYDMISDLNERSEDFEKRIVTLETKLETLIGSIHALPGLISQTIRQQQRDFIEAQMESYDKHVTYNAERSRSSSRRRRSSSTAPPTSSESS
# Description: The effect of tamapin and Lei-Dab7 to block the KCNN2 channel was assessed by the thallium flux (potassium ion surrogate) assay using FLIPR Potassium Assay KIT (Molecular Devices, CA) and a FLIPR TETRA fluorescence imaging plate reader (Molecular Devices, CA). Human embryonic kidney (HEK) 293 cell line stably expressing human KCNN2 (Charles River, MA) were plated on BioCoat Poly-D-Lysine 384-well Black/Clear Plates (BD Biosciences, NJ) at 15 000 to 30 000 cells per well and incubated at 37°C overnight or until cells form near confluent monolayer. A baseline fluorescence was recorded during the pre-incubation period, followed by activation in the stimulus buffer (K^+-free buffer with 5 mM Tl^+). The effects of tamapin and Lei-Dab7 on KCNN2 to inhibit KCNN2 channel were evaluated at 4 different concentrations (n = 4) each, based on fluorescence changes due to the treatments. The signal elicited by the respective positive control agonist [1 μM A23187 (Tocris, UK)] was set to 0% inhibition, and the signal in the presence of the respective positive control antagonists [3 μM UCL1684 (Tocris, UK)] was set to 100% inhibition. The IC50 values were defined as the concentration at which the percent inhibition equals 50.
# To determine the dose of Lei-Dab7 to be tested, we compared the effect of Lei-Dab7 and tamapin in blocking human KCNN2 expressed in HEK293 cells using a thallium-based potassium ion channel assay. […] Based on the effective dose of tamapin in mitigating motor skill–learning deficits in PAE mice (15 μg/kg body weight via i.p.)[17] and higher brain uptake of therapeutics by intranasal delivery than by i.p. delivery, we chose a dose of 3.0 μg/kg body weight to test the effect of intranasal administration of Lei-Dab7.
# Supplementary Figure 3. Concentration-response relationships of Lei-Dab7 and Tamapin on the Inhibition of KCNN2 channels. (A, B) The concentration-response relationships of Lei-Dab7 (A) and Tamapin (B) on the inhibition of KCNN2 (SK2) channels examined by the thallium flux assay are presented. […]
# [1] = Physiological monitoring (PhysioSuite) after intranasal administration; assay type: in vivo, mouse (CD-1)
# Description: Lei-Dab7 or biotinylated Lei-Dab7 (Smartox Biotechnology, France) was dissolved in PBS and administered to mice intranasally at 3.0 μg/kg/day. Vehicle (PBS) only was administered as the control. Briefly, the mouse was held softly on the neck to avoid any movement during drug administration. A 20-μL pipette was used to deliver 3 to 5 μL drug at a time. The tip was placed close enough to the mouse’s nostril at a 45-degree angle, and the drug was slowly ejected into the nostril. The mouse was let to inhale for 3 to 5 seconds and then left in a cage for 5 minutes to fully inhale the drug. This process was repeated until the required amount of drug was administered in a few minutes. The alternate nostril was used to deliver the drug each time to increase the efficiency of administration. Successful delivery by this method was confirmed by detecting biotinylated Lei-Dab7 in the brain, which was collected and immersion-fixed with 4% PFA at 15 minutes after intranasal administration using ABC (Thermo Fisher Scientific, NY) and TSA (PerkinElmer, MA) kits. For the analysis on the effect of treatment, Lei-Dab7 was administered daily throughout the reversal learning test phase of the water T-maze test. Physiological monitoring was recorded at 30 minutes and 24 hours post administration by using PhysioSuite (Kent Scientific, CT).
# Supplementary Figure 4. […] Pulse oximetry, heart rate, and body temperature were recorded at 30 minutes and 24 hours post administration of vehicle control (30 minutes only) or Lei-Dab7 (30 minutes, 24 hours). Siblings from the same mother were used as the control for the Lei-Dab7 treatment. […] Data are presented in box plots. The line within the box indicates the median, and the upper and lower edges of the box represent the 25th and 75th percentiles, respectively. The upper and lower whisker boundaries indicate the 10th and 90th percentiles, respectively, and dots indicate outliers.
# [2] = P40, 30 minutes and 24 hours post administration, one-way ANOVA, n = 6 animals from 3 litters per group
structure (smiles),measurement,setting,value
"CC[C@H](C)[C@@H]1NC(=O)[C@@H]2CSSC[C@H](NC(=O)[C@H](Cc3ccccc3)NC(=O)[C@H](C)N)C(=O)N[C@@H](CC(N)=O)C(=O)N[C@@H](CC(C)C)C(=O)N[C@@H](CCCNC(=N)N)C(=O)N[C@@H](CCN)C(=O)N[C@H]3CSSC[C@H](NC(=O)[C@H](CCCCN)NC(=O)[C@H](CC(=O)O)NC(=O)CNC1=O)C(=O)N[C@@H](CCC(=O)O)C(=O)N[C@H](C(=O)N[C@H](C(=O)N[C@@H](CCCCN)C(=O)N[C@@H](Cc1c[nH]cn1)C(N)=O)C(C)C)CSSC[C@H](NC(=O)[C@H](CO)NC(=O)[C@H](CC(C)C)NC(=O)[C@H](CCC(N)=O)NC3=O)C(=O)N[C@@H](CCCNC(=N)N)C(=O)N[C@@H](CO)C(=O)N[C@@H](CC(C)C)C(=O)NCC(=O)N[C@@H](CC(C)C)C(=O)N[C@@H](CC(C)C)C(=O)NCC(=O)N[C@@H](CCCCN)C(=O)N2 [Lei-Dab7, Leiurotoxin-1 Dab7] (H-AFCNLR[Dab]CQLSCRSLGLLGKCIGDKCECVKH-NH2; disulfide 3-21, 8-26, 12-28)",negative effects on learning in rats,rat,no negative effects
same,IC50,"human KCNN2; HEK293 stably expressing human KCNN2, thallium flux, FLIPR Potassium Assay Kit, FLIPR TETRA, 4 concentrations, n = 4, 0% = 1 μM A23187, 100% = 3 μM UCL1684",720 nM
same,IC50 of Lei-Dab7 relative to tamapin (times higher),"human KCNN2; ratio of IC50 Lei-Dab7 to IC50 tamapin, human KCNN2 in HEK293",> 10 times
same,"toxicity, 3 primary physiological measures","[1]; 3.0 μg/kg intranasal, pulse oximetry, heart rate, body temperature, 30 minutes or 24 hours post administration",without apparent acute physiological adverse effects; also recorded: No severe toxicity
same,body temperature vs vehicle,[1]; [2],no statistically significant differences
same,heart rate vs vehicle,[1]; [2],no statistically significant differences
same,pulse oximetry vs vehicle,[1]; [2],no statistically significant differences
same,adverse effects in control animals,"[1]; intranasal, control animals (Figs. 5, S4)",no apparent adverse effects in control animals
